The source of these data is US6878522B2, “Methods for the identification of compounds useful for the treatment of disease states mediated by prostaglandin D2” (priority 2000, dated 2005).

Experiment [1] has as its system isolated human eosinophils. In words: Chemotaxis of isolated human eosinophils. The class given is cell-based. The method, then:
In a specific example of this method, a competitive assay is performed to test compounds for their ability to interrupt the attraction of CRTH2 cells to PGD2. In this method, test compounds are diluted into the bottom wells of the Boyden chemotaxis chamber. A constant amount of PGD2 is also added to this dilution series, at a concentration known to have a chemotactic effect on CRTH2 cells. As a control, at least one aliquot contains only PGD2. Cells expressing CRTH2 are resuspended at 3-3.5×10^6 cells/ml in RPMI 1640 supplemented with 10 mM HEPES and 1 mg/ml bovine serum albumin (Sigma, St. Louis, Mo.), and placed into the upper wells of the chamber. The chambers are incubated for 90-120 minutes at 37° C. in a humidified CO2 incubator. After the incubation period, the number of migrating cells on the lower surface of the membrane filter is counted using light microscopy. The contribution of the test compound to the chemotactic activity of PGD2 is measured by comparing the chemotactic activity of the aliquots containing only PGD2 with the activity of aliquots containing test compound and PGD2. If addition of the test compound to the PGD2 solution results in a […] in the number of cells detected on the lower surface of the membrane relative to the number of cells detected using a solution containing only PGD2, then there is identified an antagonist of PGD2 induction of chemotactic activity of cells expressing CRTH2. In contrast, if the addition of the test compound to the PGD2 solution results in a […] in the number of cells detected on the lower surface of the membrane (relative to the number of cells detected using a solution containing only PGD2), then an […] of PGD2 induction of chemotactic activity of cells expressing CRTH2 is identified.
The chemotactic response of human T lymphocytes to PGD2, murine MDC and murine mSDF was also assayed. Chemotaxis was determined using a 48-well Boyden chamber (Neuroprobe, Cabin John, Md.), and 3.0 μm polycarbonate filters. Cells were resuspended (3-3.5×10^6 cells/ml) in RPMI 1640 supplemented with 10 mM HEPES and 1 mg/ml bovine serum albumin (Sigma, St. Louis, Mo.), and placed into the upper wells of the chamber. The compound to be tested was placed in the lower wells. The chambers were incubated for 90-120 minutes at 37° C. in a humidified CO2 incubator. At the end of the incubation period, the number of migrating cells on the filter (expressed per high power field) were enumerated microscopically. […] In FIG. 4, the chemotactic response of human basophils to PGD2 and C5a is shown.

The test system of experiment [2] is human whole blood eosinophil. The experiment in a line: Human whole blood eosinophil actin-polymerization response. The experiment is classed as cell-based. The settings on record: read-out: Actin-polymer EC50. An excerpt:
Yet another secondary screening assay is an actin polymerization assay. Another biological effect of the interaction of PGD2 with CRTH2 is actin polymerization. Thus, an actin polymerization assay may be used as a secondary screen to characterize the activity of a compound isolated in the primary screening assays of the invention. In one embodiment, actin polymerization may be assayed using an actin-specific fluorescent label, nitrobenzoxadiazole (NBD)-phallacidin, which binds polymerized actin fiber. In a specific embodiment, the assay may be performed as follows: cell preparations are resuspended at 5-10×10^6 cells/ml in RPMI 1640 plus 10 mM HEPES, 100/10 Pen/Strep, and 0.5% FCS. The cell suspension is aliquoted (100 μL per well) into a 96-well U-bottom polypropylene microtiter plate. 50 ul of the appropriate stimulus (PGD2 or test compound, or both PGD2 and test compound) is added using an 8-channel pipette followed exactly 25 seconds later by 50 ul of a stopping solution which contains lysophosphotidylcholine (0.5 mg/ml), Hank's balanced salt solution (100 ul 10×), 16% formaldehyde (800 ul), and 6.6 uM NBD-phallacidin in MEOH (100 ul). The plate is allowed to sit at room temperature for 15 minutes. The plate is then centrifuged at 1000 rpm for 5 minutes, the supernatants flicked off and the cell pellets resuspended in 250 ul PBS plus 2%FCS and 0.2% sodium azide. Each sample is then read on a FACS Caliber instrument. Cells are gated using the forward scatter/side scatter data in the lymphocyte area. Responses are measured by the change in median FL-1 fluorescence between vehicle treated cells and stimulus treated cells. Test compounds can be assayed in the presence and absence of PGD2, and compared to a sample containing PGD2 alone. A compound that reduces PGD2-induced actin polymerization of CRTH2 cells is identified as a candidated CRTH2 antagonist.

The subject of experiment [3] is isolated human eosinophils. In words: Reactive oxygen species (ROS) release in isolated human eosinophils. The experiment is classed as cell-based. The method, then:
Another secondary assay is the reactive oxygen species release assay. One measure of PGD2-induced activation of CRTH2 cells, such as eosinophils, is the intracellular release of reactive oxygen species. This can be tested in a reactive oxygen species release assay, or ROS, using lucigenin-dependent chemiluminescence to measure reactive oxygen species release. In this method, freshly isolated eosinophils are prepared, by standard methods, and resuspended at concentration 2-4×10^6 cells/ml in (RPMI; 10 mM HEPES; 1× Pen/Strep; 0.5% FBS) at room temperature. Immediately prior to use, 1 ml of cell suspension is added to 9 ml of buffer, prewarmed to 37° C. for 15 minutes, and added 0.5 ml of 200 mM Lucigenin.
Test compounds (made as 10,000× DMSO stocks) are diluted in buffer with DMSO (1.5 ul of DMSO/2.5 ml Buffer) and 25 μl/well added to white 96-well culture plate and placed in a 37° C. incubator. Isolated cells (held at room temperature) are diluted with room temperature buffer to 2-4×10^6 cells/ml, and incubated in a water bath at 37° C. for 15 minutes. At 15 minutes, 0.5 ml 200 mM lucigenin (bis-N-Methylacridinium Nitrate; Sigma, St. Louis, Mo.) is added to 10 ml of the cell suspension, mixed, and 100 μl/well is added to the prewarmed microtiter plate. The plate is returned to 37° C. for 5 minutes, at which time 25 μl of stimulus is added) The plate is read in the luminometer for 8 cycles. The luminescence of test compounds can be tested in the presence of PGD2, relative to a control sample containing PGD2 alone. A compound that interferes with the ability of PGD2 to result in intracellular reactive oxygen species release in CRTH2 cells, is a candidate for a CRTH2 antagonist.

Experiment [4] has as its system isolated human eosinophils. The experiment in a line: [Ca2+]i mobilization in isolated human eosinophils. The class given is cell-based. An excerpt: Calcium mobilization can be detected and measured by flow cytometry, and by labeling with fluorescent dyes that are trapped intracellularly. […] The ratio of fluorescence produced by the calcium-bound dye to that produce by the unbound dye is used to estimate the intracellular calcium concentration. In one embodiment, for example, the following method can be used. Cells that express CRTH2 are collected, and resuspended in fresh media at ˜2×10^5/ml the day before performing the calcium flux assay. Cells are incubated at 37° C. for not longer than 20-30 minutes, and then spun down and resuspended in 50 ml fresh PTI buffer (Hank's Buffer, pH 7.2-7.4; 10 mM Hepes; 1.6 mM CaCl2) containing Indo-1 AM, pre-warmed to 37° C., at a concentration of 10 million per ml. Cells are excited, and fluorescence is measured using a fluorimeter (Photon Technology Corporation, International). After the readout has stabilized, the time axis is reset, and PGD2 is added at a specific time point (e.g., 20 seconds). After response, the following reagents are added to the cuvette, to release and chelate total calcium, in the following order: 20 μl of 18% Triton X-100, 20 μl of 3M Tris, pH 8.5, and 20 μl of 0.5 M EGTA, pH 8.5. The experiment is repeated in the presence and the absence of a test compound. […] Therefore, in the presence of an […] test compound, the EC50 would be expected to be higher than this value, whereas in the presence of an agonist test compound, the EC50 would be expected to decrease.

Experiment [5] deals with T1, CRTH2 (Homo sapiens, UniProt Q9Y5Y4).
T1 construct: prolactin (prolac) signal peptide (N); expressed in transfected cells; host or cells: 300-19 cells (transformed murine pre-B lymphocytes)
T1 sequence (Q9Y5Y4 1-395): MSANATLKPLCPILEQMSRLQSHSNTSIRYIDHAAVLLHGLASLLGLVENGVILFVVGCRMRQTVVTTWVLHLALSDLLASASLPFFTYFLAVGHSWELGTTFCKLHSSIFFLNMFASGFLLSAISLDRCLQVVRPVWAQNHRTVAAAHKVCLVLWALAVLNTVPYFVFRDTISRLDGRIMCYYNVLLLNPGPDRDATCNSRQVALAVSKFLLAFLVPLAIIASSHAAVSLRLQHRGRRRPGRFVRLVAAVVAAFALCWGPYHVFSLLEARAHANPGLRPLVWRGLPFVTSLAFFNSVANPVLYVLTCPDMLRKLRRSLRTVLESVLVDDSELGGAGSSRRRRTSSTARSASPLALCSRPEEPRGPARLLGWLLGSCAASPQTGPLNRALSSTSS
In words: Competition with 3H-PGD2 binding at the CRTH2 receptor (Examples 6-9). The note with it: from IC50 at CRTH2 and at DP. The method, then: To directly determine the binding affinity of CRTH2 for PGD2, the following binding assay was used. Transfected and parental 300-19 cells were washed twice at room temperature with assay buffer, and resuspended at a concentration of 2×10^7 cells/ml. Using a 96-well U-bottom polypropylene plate (Costar, Corning Inc., Acton, Mass.), the assay was set up as follows: 50 μl of vehicle (0.3% DMSO in assay buffer, total wells) or of […] cold PGD2 (NS wells); 50 μl cells (2×10^7 cells/ml for 10^6 cells per well); 50 μl 6 nM [3H]-PGD2. The plate was allowed to incubate for 20 min at RT before centrifugation (2800 rpm, Sorval RT6000, 5 min, 4° C.). The plate was harvested (Packard Unifilter plate GF/C, previously soaked in 3% PEI for at least 1 hr) with cold assay buffer using a Packard Filtermate Cell Harvester (6×150 μl buffer wash per well). The filterplate was dried overnight. After the addition of 50 μl scintillation fluid (Packard Microscint 0), the plate was counted in a Packard Topcount scintillation counter (1 min per well). […] The solutions of labeled PGD2 and unlabeled “cold” PGD2 were prepared as follows: 10 μl of [^3H]-PGD2 (Amersham lot # TRK734 162 Ci/mmol, 0.1 Ci/ml in methanol: water: acetonitrile (3:2:1), 617 nM) per ml assay buffer was used to prepare a solution of [^3H]-PGD2 at a concentration of 6 nM (50 μl/well for final conc. of 2 nM); cold PGD2 (Biomol #PG-005, lot # P4653) was dissolved in DMSO for a stock of 10 mM (stored at −20° C.). The 10 mM stock was diluted 3:1000 to obtain a final concentration of […] (50 μl/well for final conc. of […]). Assay buffer: Hank's balanced saline supplemented with HEPES and sodium bicarbonate: 100 ml/L of 10× Hank's Balanced saline (with Ca^+2, Mg^+2); 10 ml/L of 1M HEPES; 4.7 ml/L of 7.5% Sodium Bicarbonate.
In the assay, the capacity of each D-ring compound to compete with binding of ^3H-PGD2 was measured at both the CRTH2 and DP receptors, and an IC50 value (in μM) was determined. […] The binding assay procedure of Example 1 was used. Preferably, the ratio of IC50 at CRTH2 to IC50 at DP is less than about twenty, and more preferably is […].

Experiment [6] concerns the target T1, CRTH2. In words: [Ca2+]i mobilization assay in 300-19 cells expressing CRTH2. The class given is cell-based. The note with it: CRTH2 stable cell line (300-19 transfectants).
Description: Using 300-19 cells (transformed pre-B lymphocytes) expressing CRTH2, a number of mast cell and non-mast cell-derived mediators were screened in a [Ca^2+]i mobilization assay. […]

As a reminder, the EC50 is the midpoint of the concentration-response curve.

Bounds are passed on as bounds.

Regarding `CCCCC[C@H](O)/C=C/[C@@H]1[C@@H](C/C=C\CCCC(=O)O)[C@@H](O)C[C@@H]1O` [Pa, 11b-PGF2], the EC50 in experiment [1] was > 100 nM; in experiment [2] it was > 1000 nM; in experiment [3] it was > 100 nM.

As to `CCCCC[C@H](O)/C=C/[C@H]1[C@H](O)CC(=O)[C@@H]1CCCCCCC(=O)O` [PGE1], the 50% effective concentration (EC50) in experiment [1] was > 100 nM; in experiment [2], > 100000 nM; in experiment [4] it was > 1000 nM; in experiment [3], > 100 nM.

`CCCCC[C@@](C)(O)/C=C/[C@H]1C(=O)C[C@H](O)[C@@H]1C/C=C\CCCC(=O)O` [15(R)15-methyl PGD2]: the “selectivity for the CRTH2 receptor (in comparison with DP)” value (shortened to “selectivity for the CRTH2 receptor”) on CRTH2 [5] is “particularly selective for CRTH2”.

For `CCCCC[C@H](O)/C=C/[C@@H]1[C@H]2C/C(=C/CCCC(=O)O)O[C@H]2C[C@H]1O` [PG12], the EC50 in experiment [1] was > 100 nM; in experiment [2], > 100000 nM; in experiment [4] it was > 1000 nM; in experiment [3] it was > 1000 nM.

Turning to `CCCCC[C@H](O)/C=C/[C@@H]1[C@@H](C/C=C\CCCC(=O)O)[C@H]2CO[C@@H]1C2` [Compound U-46619], the concentration for a half-maximal effect (EC50) in experiment [4] is > 1000 nM; in experiment [3], > 100 nM.

On to PGJ2, for which the EC50 is > 100 nM in experiment [1]; 200 nM at CRTH2 [6]; 1800 nM in experiment [2]; 130 nM in experiment [4]; 75 nM in experiment [3].

Take `CCCCCC(=O)CCC1C(=O)CC(O)C1C/C=C\CCCC(=O)O` (stereo not drawn) [13,14-dihydro-15-keto PGD2]: the “selectivity for the CRTH2 receptor” value on CRTH2 [5] is “particularly selective for CRTH2”.

For the compound `CCCCC/C=C\C=C1\C(=O)CC(O)C1C/C=C\CCCC(=O)O` (stereo not drawn) [15-deoxy-delta 12, 14, PGD2], the “selectivity for the CRTH2 receptor” value at CRTH2 [5] is reported as “particularly selective for CRTH2”.
